Test results from patent publication US20070020747A1, “Composition for eliminating ethidium bromide and use thereof” (priority 2005, published 2007).

Columns and labels:
[1] = UV examination of EtBr elimination by oxidants in glass bottles (Example 1); details: for EtBr cleaning effect: oxidant 500 mM, not illuminated with UV; for EtBr cleaning effect / EtBr-eliminating effect (fluorescence): 60 min; for elimination of EtBr in solution (fluorescence): oxidant 20 or 500 mM, illuminated with UV for 60 minutes, groups 1-3
Procedure: 5M lithium nitrate (LiNO3), 5M sodium nitrite (NaNO2), and 5 µg/ml EtBr solutions were prepared.
7 glass bottles (about 7 ml of capacity) were prepared with solutions as described in Table 1. The bottle 1 was added 4 μl LiNO3 and 996 μl EtBr, wherein the final concentration of LiNO3 was 20 mM. The bottle 2 was added 100 μl LiNO3 and 900 μl EtBr, wherein the final concentration of LiNO3 was 500 mM. The bottle 3 was added 4 μl NaNO2 and 996 μl EtBr, wherein the final concentration of NaNO2 was 20 mM. The bottle 4 was added 100 μl NaNO2 and 900 μl EtBr, wherein the final concentration of NaNO2 was 500 mM. The bottle 5 was added 1 ml EtBr only. The bottle 6 was added 100 μl LiNO3 and 900 μl EtBr. The bottle 7 was added 100 μl NaNO2 and 900 μl EtBr.
The bottles 1-5 were illuminated with ultraviolet, which was 8 W and the wavelength was 180-280 nm. The samples were collected in the time point 0 and 60 minutes. The bottles 6 and 7 were not illuminated with ultraviolet and the samples were collected in the time point 60 minutes.
Except the wavelength of UV was changed to 280˜320 nm, all conditions were identical to group 1.
Except the wavelength of UV was changed to 320˜380 nm, all conditions were identical to group 1.
Each sample was collected 25 μl from the experimental bottle in the selected time point. There were 12 samples for each group, total 36 samples. These samples were dropped on the center of a filter paper (diameter 2.5 cm) and illuminated with UV to observe the elimination of EtBr.

[2] = UV examination of EtBr elimination by oxidants in beakers under a four-tube UV lid (Example 2); details: oxidant 50 mM
Procedure: The appearance of the light source was a rectangular lid and the size was 35 cm×21 cm×15 cm. Four parallel 8 W UV tubes were implanted on the top of the lid.
5 beakers were prepared. Beaker 1 and 2 were added 100 μl LiNO3 and 9.9 ml EtBr, so that the final concentration of LiNO3 was 50 mM. Beaker 3 and 4 were added 100 μl NaNO2 and 9.9 ml EtBr, so that the final concentration of NaNO2 was 50 mM. Beaker 5 was added 10 ml EtBr only. The beakers 1, 3 and 5 were illuminated with UV, and the samples were collected in the time points 0, 15, 30, 60 and 120 minutes. The beakers 2 and 4 were not illuminated with UV, and the samples were collected in the time point 120 minutes.
Each sample was collected 25 μl from the experimental beaker in the selected time point. There were 17 samples totally. These samples were dropped on the center of a filter paper (diameter 2.5 cm) and illuminated with UV to observe the elimination of EtBr.

[3] = oxidant plus UV with wavelength 180~280 nm, 8 W
[4] = oxidant plus UV with wavelength 320~380 nm
[5] = oxidant plus UV, second wavelength printed as 180~280 nm (group 2: 280~320 nm)
[6] = after 60 minutes of UV illumination
[7] = after illuminating with UV for 15 minutes

Structure (SMILES)	EtBr cleaning effect [1]	elimination of EtBr in solution (fluorescence) [1]	EtBr-eliminating effect (fluorescence) [1, 3]	EtBr-eliminating effect (fluorescence) [1, 4]	EtBr-eliminating effect (fluorescence) [1, 5]	destruction of EtBr (fluorescence) [2, 6]	destruction of EtBr (fluorescence) [2, 7]	destruction of EtBr (fluorescence) ([2]; no UV illumination, 120 min)
O=[N+]([O-])[O-].[Li+] [lithium nitrate]	no or insignificant EtBr cleaning effect	completely destroyed	strongest effect	less effective	modest effect	almost all of EtBr in the samples were destroyed	most EtBr	not destroyed (or insignificantly destroyed)
O=NO [sodium nitrite]	no or insignificant EtBr cleaning effect	completely destroyed	strongest effect	less effective	modest effect	almost all of EtBr in the samples were destroyed	most EtBr	not destroyed (or insignificantly destroyed)
